# Source: article PMC9558617 (ACS infectious diseases, 2022)
# System: Mtb H37Rv
# Assay: microbe, parasite or virus in culture
# Type: cell-based
# Details: Mycobacterium tuberculosis, 168 h, read-out: MIC 7H9/ADC/Tw
row,Compound,MIC
1,"N[C@H](Cc1ccccc1)C(=O)O [D-Phe, D-phenylalanine]",> 310 µM

# System: Mtb WT
# Assay: microbe, parasite or virus in culture
# Type: cell-based, Mycobacterium tuberculosis
# Details: not given
row,Compound,MIC WT
1,CC1(C)S[C@@H]2[C@H](NC(=O)[C@H](N)c3ccccc3)C(=O)N2[C@H]1C(=O)O [Ampicillin],>50 µM
2,Capreomycin,0.78 µM

# Same assay, conditions: Mycobacterium tuberculosis
row,Compound,MIC
1,CC1(C)S[C@@H]2[C@H](NC(=O)[C@H](N)c3ccccc3)C(=O)N2[C@H]1C(=O)O [Ampicillin],2.3 µM

# Same assay, conditions: Mycobacterium tuberculosis, read-out: MIC WT
row,Compound,MIC
1,CC1(C)S[C@@H]2[C@H](NC(=O)[C@H](N)c3ccccc3)C(=O)N2[C@H]1C(=O)O [Ampicillin],> 50 µM
2,COc1nc2ccc(Br)cc2cc1[C@@H](c1ccccc1)[C@@](O)(CCN(C)C)c1cccc2ccccc12 [Bedaquiline],0.31 µM
3,CC(C)/N=c1\cc2n(-c3ccc(Cl)cc3)c3ccccc3nc-2cc1Nc1ccc(Cl)cc1 [Clofazimine],0.16 µM
4,N[C@@H]1CON=C1O [D-Cycloserine],4.7 µM
5,C[C@]1(COc2ccc(N3CCC(Oc4ccc(OC(F)(F)F)cc4)CC3)cc2)Cn2cc([N+](=O)[O-])nc2O1 [Delamanid],0.0031 µM
6,CC[C@@H](CO)NCCN[C@@H](CC)CO [Ethambutol],1.6 µM
7,CCc1cc(C(N)=S)ccn1 [Ethionamide],0.3 µM
8,C[C@@H](O)[C@H]1C(=O)N2C(C(=O)O)=C(SCCN=CN)C[C@H]12 [Imipenem],0.39 µM
9,NNC(=O)c1ccncc1 [Isoniazid],0.31 µM
10,CC(=O)NC[C@H]1CN(c2ccc(N3CCOCC3)c(F)c2)C(=O)O1 [Linezolid],0.78 µM
11,C[C@@H](O)[C@H]1C(=O)N2C(C(=O)O)=C(S[C@@H]3CN[C@H](C(=O)N(C)C)C3)[C@H](C)[C@H]12 [Meropenem],1.2 µM
12,COc1c(N2C[C@@H]3CCCN[C@@H]3C2)c(F)cc2c(=O)c(C(=O)O)cn(C3CC3)c12 [Moxifloxacin],0.12 µM
13,CO[C@H]1/C=C/O[C@@]2(C)Oc3c(C)c(O)c4c(O)c(c(/C=N/N5CCN(C)CC5)c(O)c4c3C2=O)NC(=O)/C(C)=C\C=C\[C@H](C)[C@H](O)[C@@H](C)[C@@H](O)[C@@H](C)[C@H](OC(C)=O)[C@@H]1C [Rifampicin],0.012 µM
14,[H]/N=C(/N)N[C@H]1[C@H](O)[C@@H](O)[C@H](O[C@@H]2O[C@@H](C)[C@](O)(C=O)[C@H]2O[C@@H]2O[C@@H](CO)[C@H](O)[C@@H](O)[C@@H]2NC)[C@@H](N/C(N)=N\[H])[C@@H]1O [Streptomycin],0.46 µM
15,CN[C@H](CC(C)C)C(=O)N[C@H]1C(=O)N[C@@H](CC(N)=O)C(=O)N[C@H]2C(=O)N[C@H]3C(=O)N[C@H](C(=O)N[C@H](C(=O)O)c4cc(O)cc(O)c4-c4cc3ccc4O)[C@H](O)c3ccc(c(Cl)c3)Oc3cc2cc(c3O[C@@H]2O[C@H](CO)[C@@H](O)[C@H](O)[C@H]2O[C@H]2C[C@](C)(N)[C@H](O)[C@H](C)O2)Oc2ccc(cc2Cl)[C@H]1O [Vancomycin],5 µM
16,Nc1ccc(C(=O)O)c(O)c1 [p-Aminosalicylic acid],0.3 µM

# System: CC(C)(CO)C(=O)C(=O)O
# Assay: purified protein, by the assay type
# Details: not given
row,Compound,Km
1,MtbPanG (Rv3603c) (Mycobacterium tuberculosis H37Rv),24 ± 2 µM

# System: PanE KPR from E. coli
# Assay: not given
# Details: literature values; cited from earlier work
row,Compound,Km
1,CC(C)(CO)C(=O)C(=O)O [ketopantoate],30 to 120 µM
2,NADPH,4 to 7 µM
